Test results: patent US20120328521A1, “FORMULATIONS SUITABLE FOR PET IMAGING WITH HYDROPHOBIC PET AGENTS” (PIRAMAL IMAGING SA, priority 2009, published 2012)

What was measured:
Type in all cases: physicochemical
[1] = Adsorption of compound 1 onto sterile filters (assay in filtrate of formulation II)
Method: Formulation II comprising compound 1 was prepared as indicated above and filtered using selected sterile filters. Adsorption of compound 1 was determined before and after filtration using different filter types. Table 3 indicates the results of adsorption experiments using different filters.
Only hydrophobic filters show a low amount of compound 1 adsorbed onto the filter material.

[2] = Stability of formulation comprising HCl salt of compound 1 for 8 hours at room temperature (HPLC assay); conditions: for assay of HCl salt of compound 1, batch 01 / assay of HCl salt of compound 1, batch 02 / assay of HCl salt of compound 1, batch 03 / assay of HCl salt of compound 1, mean [%]: formulation I, 5.51 μg/mL; for assay of HCl salt of compound 1, mean [%]: mean of 3 batches
Method: Since solutions of stilbenes are light sensitive, the solutions were stored under light protection.
A solution was prepared containing 5.51 μg/mL HCl salt of compound 1 as in formulation I. Assay was analysed after different timepoints. Three individual batches were prepared and analysed for assay and particulate matter. From these solutions samples were taken and analysed by HPLC.
Table 1 indicates the results of stability testing up to 8 hours of 3 individually manufactured batches.

[3] = Particulate matter testing of formulation I (HIAC Royco Liquid Particle Counting System); conditions: up to 8 hours
Method: Solubility of the active was tested by visual inspection using an illuminated magnifying glass with black background and confirmed by experiments assessing particulate matter using the HIAC Royco, Liquid Particle Counting System, Model 9703.
The formation of particles was assessed using the HIAC Royco, Liquid Particle Counting System, Model 9703 and in addition to the channels normally inspected (10 μm and 25 μm), also the smaller channels (2 μm and 5 μm) were used to assess the stability of the formulation. The formulation I was sterile filtered and inspected at timepoint 1 hour and 8 hours.
Table 2 indicates the results of particulate matter testing up to 8 hours of 3 individually manufactured batches
Since the handling of the solutions was made under normal laboratory conditions, the particle background measured in the sterile filtered solutions have an exogenous nature.

CNc1ccc(/C=C/c2ccc(OCCOCCOCCF)cc2)cc1 [Compound 1]
Analysis of assay in filtrate ([1]; Millipore Millex 0.2 μm, Order No SLGV013SL, PVDF, hydrophobic material rendered hydrophilic by surface modification): 97.3% | Analysis of assay in filtrate ([1]; Sartorius Minisart 0.2 μm (blue), Order No 16534, Celluloseacetat, hydrophylic): 53% | Analysis of assay in filtrate ([1]; Sartorius Minisart HY 0.2 μm, Order No 16596, PTFE, hydrophobic): 96.5% | Analysis of assay in filtrate ([1]; Sartorius Minisart High Flow 0.2 μm, Order No 16532, PES, hydrophobic): 75% | amount adsorbed onto the filter material ([1]; only hydrophobic filters): low amount | chemical stability in the formulation ([2]; HCl salt, 8 hours): chemically stable | assay of HCl salt of compound 1, batch 01 ([2]; time 1 hour): 100.2% | assay of HCl salt of compound 1, batch 02 ([2]; time 1 hour): 98.3% | assay of HCl salt of compound 1, batch 03 ([2]; time 1 hour): 96.9% | assay of HCl salt of compound 1, mean [%] ([2]; time 1 hour): 98.5% | assay of HCl salt of compound 1, batch 01 ([2]; time 2 hours): 101.2% | assay of HCl salt of compound 1, batch 02 ([2]; time 2 hours): 98.4% | assay of HCl salt of compound 1, batch 03 ([2]; time 2 hours): 97.17% | assay of HCl salt of compound 1, mean [%] ([2]; time 2 hours): 98.9% | assay of HCl salt of compound 1, batch 01 ([2]; time 3 hours): 101.1% | assay of HCl salt of compound 1, batch 02 ([2]; time 3 hours): 98.7% | assay of HCl salt of compound 1, batch 03 ([2]; time 3 hours): 96.2% | assay of HCl salt of compound 1, mean [%] ([2]; time 3 hours): 98.7% | assay of HCl salt of compound 1, batch 01 ([2]; time 4 hours): 101.2% | assay of HCl salt of compound 1, batch 02 ([2]; time 4 hours): 98% | assay of HCl salt of compound 1, batch 03 ([2]; time 4 hours): 97.4% | assay of HCl salt of compound 1, mean [%] ([2]; time 4 hours): 98.9% | assay of HCl salt of compound 1, batch 01 ([2]; time 5 hours): 101.5% | assay of HCl salt of compound 1, batch 02 ([2]; time 5 hours): 98.6% | assay of HCl salt of compound 1, batch 03 ([2]; time 5 hours): 96.6% | assay of HCl salt of compound 1, mean [%] ([2]; time 5 hours): 98.9% | assay of HCl salt of compound 1, batch 01 ([2]; time 6 hours): 101.5% | assay of HCl salt of compound 1, batch 02 ([2]; time 6 hours): 98.7% | assay of HCl salt of compound 1, batch 03 ([2]; time 6 hours): 95.7% | assay of HCl salt of compound 1, mean [%] ([2]; time 6 hours): 98.6% | assay of HCl salt of compound 1, batch 01 ([2]; time 7 hours): 101.7% | assay of HCl salt of compound 1, batch 02 ([2]; time 7 hours): 98.5% | assay of HCl salt of compound 1, batch 03 ([2]; time 7 hours): 96.5% | assay of HCl salt of compound 1, mean [%] ([2]; time 7 hours): 98.9% | assay of HCl salt of compound 1, batch 01 ([2]; time 8 hours): 102.7% | assay of HCl salt of compound 1, batch 02 ([2]; time 8 hours): 98.7% | assay of HCl salt of compound 1, batch 03 ([2]; time 8 hours): 96.5% | assay of HCl salt of compound 1, mean [%] ([2]; time 8 hours): 99.3% | dissolution state / precipitation in formulation [3]: remains dissolved and is not precipitating
